Calls of active or inactive are those of the source. The calls are words filed in the database; no cut-off is given here. Non-standard residues stand in square brackets, D forms with d. Residues, ends and D or L forms follow the SMILES beside them. Met(O2) = CS(=O)(=O)CC[C@H](N)C(=O)O; NMeI = CC[C@H](C)[C@H](NC)C(=O)O; NMeL = CN[C@@H](CC(C)C)C(=O)O; NMeV = CN[C@H](C(=O)O)C(C)C; Sar = CNCC(=O)O

Experiment [1] is described as follows: Inhibition of fibril formation of Abeta (1-40) assessed as fibril levels at 1:10 molar ratio of Abeta and ligand after 72 hrs by transmission electron microscopy relative to untreated control. More on the design: scale not given: the % may be the effect or the level left.
Experiment [2] can be described thus: Reduction of beta-sheet formation of Abeta (1-40) at 1:1 molar ratio of Abeta and ligand during 5 hrs incubation by CD spectroscopy.
A short description of experiment [3]: Inhibition of Abeta (1-40) assessed as blockade of amyloid-like aggregates at 100 uM by Congo red binding assay.
Experiment [4] can be described thus: Reduction of beta-sheet formation of Abeta (1-42) at 100 uM during 3 hrs incubation by CD spectroscopy.
The test system of the next experiment is PC-12. The experiment can be described thus: Cytoprotection against Abeta (1-42)-induced toxicity in rat PC12 cells at 10 uM after 4 hrs by MTT assay. The experiment is classed as functional, cell-based.
Experiment [5] in a line: Effect on of Abeta (1-40) assessed as structure content at 5 hrs by CD spectroscopy.
Experiment [6] is described as follows: Inhibition of Abeta (1-42) assessed as blockade of amyloid-like aggregates at 100 uM by Congo red binding assay.
A short description of experiment [7]: Reduction of beta-sheet formation of Abeta (1-40) at 100 uM during 4 to 5 hrs incubation by CD spectroscopy.
The subject of experiment [8] is Drosophila melanogaster. In words: Prolongation of life span in transgenic Drosophila melanogaster expressing human Abeta (1-42) at 300 uM dosed from embryonic stage and throughout adult life. The experiment is classed as functional, organism-based.
The nature of experiment [9]: Reduction of beta-sheet formation of Abeta (1-42) at 100 uM during 4 hrs incubation by CD spectroscopy.
A short description of experiment [10]: Inhibition of fibril formation of Abeta (1-40) assessed as change in fibril morphology at 100 uM by atomic force microscopy relative to untreated control.
A short description of experiment [11]: Inhibition of fibril formation of Abeta (1-40) assessed as fibril levels at 1:1 molar ratio of Abeta and ligand after 72 hrs by transmission electron microscopy relative to untreated control. More on the design: scale not given: the % may be the effect or the level left.
Experiment [12] in a line: Inhibition of fibril formation of Abeta (1-40) assessed as change in fibril levels at 100 uM by atomic force microscopy relative to untreated control.
The test system of experiment [13] is Drosophila melanogaster. The experiment can be described thus: Effect on life span in wild type Drosophila melanogaster at 300 uM dosed from embryonic stage and throughout adult life. The class given is functional, organism-based.
The nature of experiment [14]: Inhibition of fibril formation of Abeta (1-40) assessed as fibril levels at 1:5 molar ratio of Abeta and ligand after 72 hrs by transmission electron microscopy relative to untreated control. Set-up: scale not given: the % may be the effect or the level left.
The subject of experiment [15] is Drosophila melanogaster. In words: Improvement in locomotor activity in transgenic Drosophila melanogaster expressing human Abeta (1-42) at 300 uM dosed from embryonic stage and throughout adult life by climbing assay. The class given is functional, organism-based.
The nature of experiment [16]: Reduction of beta-sheet formation of Abeta (1-40) at 100 uM during 5 hrs incubation by CD spectroscopy.
Experiment [17] is described as follows: Reduction of beta-sheet formation of Abeta (1-40) at 1:1 molar ratio of Abeta and ligand during 4 hrs incubation by CD spectroscopy.
A short description of experiment [18]: Effect on of Abeta (1-42) assessed as unordered structure content after 5 hrs by CD spectroscopy.
Experiment [19] in a line: Effect on of Abeta (1-40) assessed as unordered structure content after 5 hrs by CD spectroscopy.

Take `CC[C@H](C)[C@@H](C(=O)NCC(=O)N(C)[C@@H](CC(C)C)C(=O)N[C@@H](CCSC)C(=O)N(C)[C@H](C(=O)NCC(N)=O)C(C)C)N(C)C(C)=O` (Ac-[NMeI]G[NMeL]M[NMeV]G-NH2): the Activity turned out to be 50% in experiment [1] and 25% in experiment [5]. Moreover, the outcome in [2], in experiment [3] and in experiment [6] was inactive. Also, the outcome (in experiment [4]; with PC-12; in experiment [7]) was Active.

Turning to `CC[C@H](C)[C@@H](C(=O)N(C)CC(=O)N(C)[C@@H](CC(C)C)C(=O)N[C@@H](CCSC)C(=O)N(C)[C@H](C(=O)N(C)CC(N)=O)C(C)C)N(C)C(C)=O` (Ac-[NMeI][Sar][NMeL]M[NMeV][Sar]-NH2), the outcome (with Drosophila melanogaster [8]; in experiment [3]; in the experiment with PC-12; in experiment [9]; in experiment [10]; in experiment [12]) was Active. Besides, the result (in [6]; in the experiment on Drosophila melanogaster [15]; in experiment [16]; in [17]) was Active. Further, the Activity in experiment [1] was 0%; in experiment [11], 50%; in experiment [14], 0%; in [5] it was 25%; in [18], greater than 50%; in [19] it was 55%. The outcome in the experiment on Drosophila melanogaster [13] was inactive.

In the case of `CC[C@H](C)[C@H](NC(C)=O)C(=O)N(C)CC(=O)N[C@@H](CC(C)C)C(=O)N[C@@H](CCSC)C(=O)N[C@H](C(=O)N(C)CC(N)=O)C(C)C` (Ac-I[Sar]LMV[Sar]-NH2), the Activity in [1] turned out to be 75%. Besides, the result in experiment [3] and in experiment [6] was inactive. In addition, the result (in [4]; in the experiment on PC-12; in experiment [7]) was Active.

As to `CC[C@H](C)[C@H](NC(C)=O)C(=O)NCC(=O)N[C@@H](CC(C)C)C(=O)N[C@@H](CCSC)C(=O)N[C@H](C(=O)NCC(N)=O)C(C)C` (Ac-IGLMVG-NH2), the Activity in [1] is 75%; in [5] it was 25%. In addition, the result (in experiment [3]; in the experiment on PC-12; in experiment [6]) was inactive. Moreover, the result in experiment [4] and in experiment [7] was Active.

Turning to `CC(=O)N(C)[C@@H](C)C(=O)N(C)[C@@H](C)C(=O)N(C)[C@@H](C)C(=O)N(C)[C@@H](C)C(=O)N(C)[C@@H](C)C(N)=O`, in experiment [14], the Activity worked out at 75%.

Take `CC[C@H](C)[C@@H](C(=O)N(C)CC(=O)N(C)[C@@H](CC(C)C)C(=O)N[C@@H](CCS(C)(=O)=O)C(=O)N(C)[C@H](C(=O)N(C)CC(N)=O)C(C)C)N(C)C(C)=O` (Ac-[NMeI][Sar][NMeL][Met(O2)][NMeV][Sar]-NH2): the Activity in [14] was found to be 50%.

Values taken from ChEMBL document CHEMBL1154703, “Poly-N-methylated amyloid beta-peptide (Abeta) C-terminal fragments reduce Abeta toxicity in vitro and in Drosophila melanogaster” (J Med Chem, 2009).
